Experimental data reported in US8481546B2, “CGRP receptor antagonist” (Bristol-Myers Squibb Company, priority 2010, dated 2013).
Where two headings read alike, the source gives them in different places.

Legend:
[1] = biological target: T1, CGRP receptor endogenously expressed in SK-N-MC cell membranes (Homo sapiens, UniProt O60894+Q16602); assay: Competition for [125I]CGRP binding (radioligand competition assay); conditions: 15 pM [125I]CGRP, read-out: mean Ki, inhibition of [125I]CGRP binding
T1 construct: endogenous in cells; host or cells: SK-N-MC human neuroblastoma cells (membrane homogenate or attached whole cells)
Description: SK-N-MC cell membrane homogenate serves as the receptor source. Human neuroblastoma SK-N-MC cells are used for in vitro assays because they endogenously express the CGRP receptor with an identical sequence to the cloned human CGRP receptor (Aiyar et al., 2001). Cells are grown at 37° C. in 5% CO2 in medium consisting of MEM with Earle's salts and L-glutamine supplemented with 10% fetal bovine serum to reach confluence. The cells are harvested by rinsing twice with phosphate-buffered saline and are incubated for 5-10 minutes at 4° C. in hypotonic lysis buffer consisting of 10 mM Tris (pH 7.4) and 5 mM EDTA. The cells are collected and transferred to polypropylene tubes and homogenized using a polytron. Homogenates are centrifuged at 32,000×g for 30 min. The pellets are resuspended in cold hypotonic lysis buffer with 0.1% mammalian protease inhibitor cocktail and assayed for protein concentration. The membrane homogenate is then aliquoted and stored at −80° C. until the day of assay.
The ability of Compound I to compete for the radiolabeled ([^125I]CGRP, Amersham Biosciences) endogenous peptide human alpha CGRP (hαCGRP) is measured using a radioligand competition assay. Compound I is first solubilized in and carried through serial dilutions using 100% DMSO. […] Protein bound radioactivity is measured using a gamma scintillation counter. […]

[2] = biological target: T2, CGRP receptor in attached whole SK-N-MC cells (Homo sapiens, UniProt O60894+Q16602); assay: Cellular functional assay, cyclic AMP assay; type: cell-based; conditions: 0.3 nM CGRP
T2 construct: endogenous in cells; host or cells: SK-N-MC human neuroblastoma cells (membrane homogenate or attached whole cells)
Description: The CGRP receptor complex is coupled to the Gs class of G proteins. Binding of CGRP to this complex leads to the production of cyclic AMP (adenosine 3′S′-cyclic monophosphate) via Gs-dependent activation of adenylate cyclase.
Functional antagonism by Compound I is determined by measuring its ability to inhibit CGRP-stimulated formation of cyclic AMP in attached whole SK-N-MC cells. SK-N-MC cells are incubated at room temperature with 0.3 nM CGRP alone for 30 minutes, or pre-incubated with various concentrations of Compound I for 15 minutes before the addition of 0.3 nM CGRP and then further incubated for 30 minutes. The Cyclic AMP (cAMP) produced is extracted using the “Lysis Reagent” and its concentration is determined by radioimmunoassay using RPA559 cAMP SPA Direct Screening Assay Kit (Amersham Pharmacia Biotech). IC50 values are defined as the concentration of compound required to inhibit 50% of 0.3 nM CGRP-stimulated cAMP production. Ymax is defined as maximal percent inhibition of 0.3 nM CGRP-stimulated cAMP production.

[3] = biological target: T3, CGRP receptor (CGRP-stimulated cAMP production) (Homo sapiens, UniProt O60894+Q16602); assay: Schild analysis of CGRP-stimulated cAMP production; type: cell-based
T3 construct: endogenous in cells; host or cells: SK-N-MC human neuroblastoma cells (membrane homogenate or attached whole cells)
Description: Schild analysis is used to characterize the nature of the antagonism of Compound I. The dose response of CGRP-stimulated cAMP production is generated either with CGRP alone, or with CGRP in the presence of various concentrations of Compound I. Specifically, dose-dependent cAMP stimulation by CGRP is assayed with or without five different concentrations of Compound I. The concentration of Compound I is plotted on the X-axis against the dose ratio minus 1 on the Y-axis (dose ratio is defined as the EC50 of CGRP in the presence of Compound I divided by the EC50 of CGRP alone). Linear regression is then performed with both X and Y axes log-transformed. […] Kb is the antagonist dissociation constant.

[4] = test system: olfactory epithelium (nasal tissues); assay: One-week comparative intranasal irritation study in rats (Compound I vs Compound III): nasal histology and tolerability; type: in vivo; conditions: for Olfactory Epithelial Atrophy, incidence of severity Marked (number of rats) / Olfactory Epithelial Atrophy, incidence of severity Mild (number of rats) / Olfactory Epithelial Atrophy, incidence of severity Minimal (number of rats) / Olfactory Epithelial Atrophy, incidence of severity Moderate (number of rats) / Olfactory Epithelial Atrophy, incidence of severity None (number of rats): 1 week
Description: This study was conducted to compare potential nasal irritation of Compound I to Compound III when given intranasally to male rats for 1 week. Male rats (10/group) were instilled intranasally with Compound I or Compound III solutions ([…] in 225 mM succinic acid, 0.02% benzalkonium chloride, 1.25% anhydrous dextrose, pH 5.8-6.2) once daily at a dose volume of 100 μL/nostril. Using this dosing paradigm, fixed doses of 5, 15 or 35 mg of test article were delivered daily. As a consequence, dosages normalized to body weight decreased with time as the rats grew. One control group was given succinate vehicle and a sham control group was given saline by intranasal instillation. Parameters evaluated included clinical observations, body weight, food consumption, toxicokinetics, and histological evaluation of nasal tissues.

[5] = test system: olfactory epithelium (nasal turbinates); type: in vivo, rats
Excerpt: Compound I and Compound II were also compared directly for intranasal irritation. […] The only endpoint evaluated in this study was histological evaluation of the nasal turbinates.

[6] = nasal instillation 5 mg (0.357 mg/cm^2) once daily
[7] = nasal instillation 15 mg (1.07 mg/cm^2) once daily
[8] = nasal instillation 35 mg (2.50 mg/cm^2) once daily
[9] = 25 μL/nostril, 75 mg/ml, 3.75 mg/rat/day (0.268 mg/cm^2)
[10] = 25 μL/nostril, 175 mg/ml, 8.75 mg/rat/day (0.625 mg/cm^2)
[11] = 100 μL/nostril, 175 mg/ml, 35 mg/rat/day (2.500 mg/cm^2)

Structure (SMILES): Cc1cc(C[C@@H](NC(=O)N2CCC(c3cc4ccccc4[nH]c3=O)CC2)C(=O)N2CCN(C3CCN(C)CC3)CC2)cc2cn[nH]c12 [Compound I, (R)—N-(3-(7-methyl-1H-indazol-5-yl)-1-(4-(1-methylpiperidin-4-yl)piperazin-1-yl)-1-oxopropan-2-yl)-4-(2-oxo-1,2-dihydroquinolin-3-yl)piperidine-1-carboxamide]
- Ki [1]: 0.0227 nM
- Ymax, maximal percent inhibition of CGRP-stimulated cAMP production [2]: 95.4 (±1.3) %
- IC50 ([2]; read-out: IC50, inhibition of CGRP-stimulated cAMP production): 0.0386 ± 0.0042 nM
- Schild analysis mean slope [3]: 1.02±0.04
- Kb ([3]; Schild analysis, read-out: mean antagonist dissociation constant Kb): 0.0215 ± 0.0094 nM
- tolerability of intranasal administration ([4]; male rats, 5, 15 or 35 mg once daily for 1 week): well tolerated
- Olfactory Epithelial Atrophy, incidence of severity Marked (number of rats) [4, 6]: 0
- Olfactory Epithelial Atrophy, incidence of severity Mild (number of rats) [4, 6]: 0
- Olfactory Epithelial Atrophy, incidence of severity Minimal (number of rats) [4, 6]: 1
- Olfactory Epithelial Atrophy, incidence of severity Moderate (number of rats) [4, 6]: 0
- Olfactory Epithelial Atrophy, incidence of severity None (number of rats) [4, 6]: 8
- Olfactory Epithelial Atrophy, incidence of severity Marked (number of rats) [4, 7]: 0
- Olfactory Epithelial Atrophy, incidence of severity Mild (number of rats) [4, 7]: 2
- Olfactory Epithelial Atrophy, incidence of severity Minimal (number of rats) [4, 7]: 6
- Olfactory Epithelial Atrophy, incidence of severity Moderate (number of rats) [4, 7]: 0
- Olfactory Epithelial Atrophy, incidence of severity None (number of rats) [4, 7]: 1
- Olfactory Epithelial Atrophy, incidence of severity Marked (number of rats) [4, 8]: 0
- Olfactory Epithelial Atrophy, incidence of severity Mild (number of rats) [4, 8]: 2
- Olfactory Epithelial Atrophy, incidence of severity Minimal (number of rats) [4, 8]: 3
- Olfactory Epithelial Atrophy, incidence of severity Moderate (number of rats) [4, 8]: 0
- Olfactory Epithelial Atrophy, incidence of severity None (number of rats) [4, 8]: 4
- Olfactory epithelial toxicity, number of animals with severity None ([5]; 12.5 μL/nostril, 75 mg/ml, 1.875 mg/rat/day (0.134 mg/cm^2)): 5
- Olfactory epithelial toxicity, number of animals with severity None ([5]; 12.5 μL/nostril, 175 mg/ml, 4.375 mg/rat/day (0.313 mg/cm^2)): 5
- Olfactory epithelial toxicity, number of animals with severity Minimal [5, 9]: 3
- Olfactory epithelial toxicity, number of animals with severity None [5, 9]: 2
- Olfactory epithelial toxicity, number of animals with severity Minimal [5, 10]: 1
- Olfactory epithelial toxicity, number of animals with severity None [5, 10]: 4
- Olfactory epithelial toxicity, number of animals with severity Slight ([5]; 100 μL/nostril, 75 mg/ml, 15 mg/rat/day (1.071 mg/cm^2)): 5
- Olfactory epithelial toxicity, number of animals with severity Mild [5, 11]: 4
- Olfactory epithelial toxicity, number of animals with severity Slight [5, 11]: 1
